Measured values: US8501792B2, “Treating cancer with desthiazolyl ritonavir” (priority 2008, dated 2013)
pKd: −log10 of the molar value.

Test system: Purified mammalian Hsp90
Assay: Hsp90 binding on CM-5 BIAcore chip (surface plasmon resonance)
Source text: Inhibition of Hsp90 can be evaluated by surface plasmon resonance studies of a compound of formula I, using a CM-5 Biacore chip on which Hsp90 (Stressgen, Ann Arbor) has been immobilized. This method can also be used to evaluate the chaperoning activity of a compound of formula I by evaluation of luciferase refolding. See Examples 4 and 9.
Purified mammalian Hsp90 was attached to a CM-5 BIAcore chip through an NHS ester linkage. After attachment of the Hsp90 and blocking the chip with BSA, M1 drug or a 17-AAG control was circulated through a microfluidic circuit and change in refractive index was measured by quantification of the RU value for each drug concentration. In the case of the 17-AAG control the binding was saturable and based on the kon and koff measurements, the KD was estimated to be in the 1 microM range. […] This means that there are significant differences in the binding of M-1 and may indicate alteration of the Hsp90 structure.

binding to Hsp90, saturability (RU value versus drug concentration, FIG. 11): saturable
pKd (estimated from kon and koff measurements): ~6.00
SMILES: C=CCNC1=C2C[C@@H](C)C[C@H](OC)[C@H](O)[C@@H](C)/C=C(\C)[C@H](OC(N)=O)[C@@H](OC)/C=C\C=C(/C)C(=O)NC(=CC1=O)C2=O [17-AAG]
